The test system of data set [1] is MIA PaCa-2 cells. Further details: method as in PMID 30583077. The following applies: low doses; cited from earlier work.
Data set [2] in a line: Phase-solubility study (Higuchi–Connors), apparent 1:1 stability constant with HP-β-CD. The data set is classed as physicochemical. Particulars: complex with HP-β-CD, from the phase solubility diagram, 37 ± 0.5 °C. As for the experimental part:
(§1) The phase solubility study was conducted according with Higuchi and Connors. In detail, an excess of PTA34 or PTA73 was added to 1 mL of solutions containing HP-β-CD in the appropriate concentration (0–45% w/v) in 4 mL vials, with screw caps to avoid evaporation. The obtained mixtures were vigorously vortexed for about 5 min, and the suspensions thus obtained were placed under constant stirring in a thermostat bath at 37 ± 0.5 °C for about 48 h, until the saturation of the system was achieved. Then, each suspension was centrifuged at 13,200 rpm (MIKRO 22 R, Hettich Zentrifugen, Germany) in order to remove the uncomplexed drug and the supernatant was analyzed by spectrophotometry for the quantification of the drug, after appropriate dilution. All determinations were conducted at least in triplicate. The obtained data were used to determine the apparent stability 1:1 constant (K1:1) of the HP-β-CD inclusion complexes with the biphenylnicotinamide derivatives, using the Higuchi and Connors equation: K1:1=slope/S0(1−slope) where slope is the slope of the obtained phase solubility diagrams straight line, and S0 represents PTA34 or PTA73 intrinsic solubility determined in the same way.

The test system of data set [3] is Panc-1 cells. Kind of data set: Cell cycle analysis by flow cytometry (PI staining). The data set is classed as cell-based, human. The following applies: PANC-1, 1 µM in terms of PTA, 24 h. As for the experimental part: (§2) For the cell cycle analysis, human pancreatic cancer cells were seeded in 60 mm dishes at a density of 500,000/well and incubated for 24 h at 37 °C, with PTA34, PTA73 both complexed and not at concentration 1 µM in terms of PTA’s, and with cyclodextrin alone at concentration equal to 290 µg/mL. Cells were then harvested, washed twice in ice-cold PBS pH 7.4, fixed in 4 mL of 70% ethanol, and stored at -20 °C until analysis. The cell cycle modulation induced by treatments was studied as previously described by propidium iodide (PI) staining; the pellet was resuspended in PBS without Ca^2+ and Mg^2+, containing 1 mg/mL RNase, 0.01% NP40, and 50 ĉg/mL PI (Sigma), and then flow cytometry analysis was performed on Attune NxT acoustic focusing cytometer (Life Technologies). Data were interpreted using the CytExpert software v.1.2, provided by the manufacturer.
(In general: A flow cytometer gives signals particle by particle.)

The test system of data set [4] is AsPC-1 cells. Described as above. In kind it is cell-based, human. The following applies: AsPC-1, 1 µM in terms of PTA, 24 h. As for the experimental part:
as §2

The subject of data set [5] is MIA PaCa-2 cells. The data set is described as above. The following applies: MIA PaCa-2, 1 µM in terms of PTA, 24 h. In kind it is cell-based, human. The method, then:
as §2

In data set [6] the test system is Panc-1 cells. Kind of data set: MTT cell proliferation assay. The data set is classed as cell-based. Particulars: Homo sapiens, Panc-1, 72 h, concentration in terms of PTA, ± SD. The method, then:
(§3) Human pancreatic ductal adenocarcinoma (PDAC) PANC-1 cells, human pancreas adenocarcinoma ascites metastasis cells AsPC-1, and undifferentiated human pancreatic carcinoma MIAPaCa-2 cells, were purchased from ATCC®. PANC-1 and AsPC-1 cells were cultured in Dulbecco’s modified Eagle’s medium (DMEM), supplemented with fetal bovine serum (FBS), to a final concentration of 10%, L-glutamine 1% (v/v), and penicillin/streptomycin 1% (v/v). MIA PaCa-2 cells were grown in Roswell Park Memorial Institute (RPMI) medium, supplemented as above, and in addition with horse serum, to a final concentration of 2.5%. Cells were maintained in a humid atmosphere of 95% air and 5% CO2 at 37 °C. All materials for cell culturing were purchased from EuroClone (Pero, Milan, Italy).
(§4) The 3-(4,5-dimethylthiazol-2-yl)-2,5- diphenyltetrazoliumbromide (MTT) assay was performed as previously described to investigate the effect of hydroxy-propil-β-cyclodextrin-complexed PTA34 and PTA73 (PTA34/HP-β-CD and PTA73/HP-β-CD, respectively) on cell viability of PANC-1, AsPC-1, and MIA PaCa-2 cell lines. The same uncomplexed compounds and HP-β-CD alone were also tested as reference compounds. Untreated cells were used as a […]. In particular, cells were seeded in 96 well plates at a density of 5000 cells/well, incubated for 24 h in culturing medium, and subsequently treated for 72 h, with compounds at 0.01–10 µM concentrations range, in terms of PTA34 or PTA73, included. HP-β-CD–cyclodextrin alone was tested in the concentrations range corresponding to that present in the complex, namely 2.9–2900 µg/mL. After the incubation period 10 µL of a 0.5% (w/v) MTT/PBS solution were added to each well, and the incubation was prolonged further for 2 h. After this period, medium was removed and replaced with 100 µL of DMSO. The absorbance in each well was measured by a microplate reader (MULTISKAN Sky, ThermoScientific). The results are shown as dose/effect plots of the mean of three different experiments. The IC50 was defined as the drug concentration yielding a fraction of affected (no surviving) cells = 0.5, normalized with untreated cells, and was calculated utilizing CalcuSyn v.1.1.1 software (Biosoft, UK).
For orientation: Formazan colour is commonly taken as a measure of viable cells.

For data set [7], the system named is AsPC-1 cells. The data set can be described thus: MTT cell proliferation assay. The data set is classed as cell-based. The following applies: Homo sapiens, ASPC1, AsPC-1, 72 h, concentration in terms of PTA, ± SD. As for the experimental part:
as §3, §4

Data set [8] deals with MIA PaCa-2 cells. Kind of data set: MTT cell proliferation assay. The data set is classed as cell-based. The following applies: Homo sapiens, MIA PaCa-2, 72 h, concentration in terms of PTA, ± SD. As for the experimental part: as §3, §4
Data set [9] can be described thus: Solubility in ultra-pure water and in HP-β-CD solutions at 37 °C. In kind it is physicochemical. The following applies: for solubility: 37 °C, thermodynamic from solid, ultra-pure water, 37 ± 0.5 °C; for Increase in aqueous solubility: HP-β-CD 45% w/v versus water alone. The method, then: Quantitative analysis of PTA34 and PTA73 was carried out by spectrophotometry using a dual-beam UV-VIS Lambda 20 Bio spectrophotometer (Perkin Elmer, Milan, Italy) and quartz cuvettes, with a capacity of 1 mL, using methanol as solvent. In the case of PTA34 the reading was carried out at a wavelength of 320 nm, and a calibration straight line (r^2 = 0.9979), in the concentration range between 0.15 mg/mL (4.45 × 10^−4 mM) and 0.015 mg/mL (4.45 × 10^−5 mM), was obtained. For PTA73 the reading was carried out at a wavelength of 340 nm, and a calibration straight line (r^2 = 0.9999) in the concentration range between 0.16 mg/mL (5.01 × 10^−4 mM) and 0.016 mg/mL (5.01 × 10^−5 mM), was obtained.
as §1

The mark [10] stands for this setting: HP-β-CD 0% w/v, read-out: Water solubility (intrinsic solubility, S0).
Setting [11] is: read-out: Intrinsic solubility (S0).

Structures are written as SMILES. Read-outs that look alike come from different tables or passages of the source.

For orientation: IC50 means the concentration that inhibits the measured activity by half. A low value points to inhibition by little substance. For orientation: solubility means the dissolved amount per volume that the medium holds. `O=C(Nc1ccc(-c2ccccc2)cc1[N+](=O)[O-])c1cccnc1` [PTA73]: in the data set with MIA PaCa-2 cells [1], the Antitumor activity result is on record as “remarkable antitumor activity”. Besides, the “1:1 apparent formation (equilibrium) constant, Ks” value in [2] is 369.2 M⁻¹. Besides, the “Cells arrested in G2/M phase” value in the data set with Panc-1 cells [3] is listed as 64.9%; in the data set on AsPC-1 cells [4] it was 94.1%; in the data set with MIA PaCa-2 cells [5], 45.2%. For the same compound, the figures for the IC50 in the data set with Panc-1 cells [6], in the data set with AsPC-1 cells [7] and in the data set on MIA PaCa-2 cells [8] were 1500 ± 200 nM, 2300 ± 600 nM and 6 ± 2 nM, respectively. Also, the results for the solubility in [9] (setting [10]) and in data set [9] (setting [11]) were 7.16 ± 0.34 µg/mL and 22.4 µM, respectively. In addition, the “Increase in aqueous solubility” value in [9] is listed as approximately 106 times.

In the case of `O=C(Nc1ccc(-c2ccc(F)cc2)cc1[N+](=O)[O-])c1cccnc1` [PTA34], the Antitumor activity entry in the data set on MIA PaCa-2 cells [1] is “remarkable antitumor activity”. The “1:1 apparent formation (equilibrium) constant, Ks” value in data set [2] is 503.9 M⁻¹. The figures for the “Cells arrested in G2/M phase” value in the data set on Panc-1 cells [3], with AsPC-1 cells [4] and in the data set on MIA PaCa-2 cells [5] were 57.9%, 93% and 36.7%, respectively. Further, the IC50 in the data set with Panc-1 cells [6] is 2500 ± 500 nM; with AsPC-1 cells [7] it was 1900 ± 300 nM; in the data set with MIA PaCa-2 cells [8], 310 ± 40 nM. In addition, the solubility in data set [9] (setting [10]) was 1.95 ± 0.35 µg/mL; in data set [9] (setting [11]), 5.78 µM. Further, the “Increase in aqueous solubility” value in data set [9] is listed as “about 150 times”.
